Measurements reported in patent publication US11938190B2, “Herbal extracts for treatment of herpesvirus infections” (KAMEDIS LTD., priority 2018, dated 2024).
Converted amounts (≈) assume the structure as drawn.

System: Herpes Simplex Virus type 1 (HSV-1)
Experiment: microbe, parasite or virus in culture
Format: cell-based
Conditions: Human alphaherpesvirus 1; Example 2; acyclovir dose-response curve; EYFP-HSV-1, Vero cells

Molecule Nc1nc2c(ncn2COCCO)c(=O)[nH]1 [Acyclovir] has an IC50 of 0.126 ± 0.014 µg/mL (≈ 0.559 µM).
